Where two headings read alike, the source gives them in different places.
Assays:
[1] = biological target: T1, human parathyroid cells (calcium receptor) (Homo sapiens, UniProt P41180); assay type: cell-based
T1 sequence (P41180 20-1078): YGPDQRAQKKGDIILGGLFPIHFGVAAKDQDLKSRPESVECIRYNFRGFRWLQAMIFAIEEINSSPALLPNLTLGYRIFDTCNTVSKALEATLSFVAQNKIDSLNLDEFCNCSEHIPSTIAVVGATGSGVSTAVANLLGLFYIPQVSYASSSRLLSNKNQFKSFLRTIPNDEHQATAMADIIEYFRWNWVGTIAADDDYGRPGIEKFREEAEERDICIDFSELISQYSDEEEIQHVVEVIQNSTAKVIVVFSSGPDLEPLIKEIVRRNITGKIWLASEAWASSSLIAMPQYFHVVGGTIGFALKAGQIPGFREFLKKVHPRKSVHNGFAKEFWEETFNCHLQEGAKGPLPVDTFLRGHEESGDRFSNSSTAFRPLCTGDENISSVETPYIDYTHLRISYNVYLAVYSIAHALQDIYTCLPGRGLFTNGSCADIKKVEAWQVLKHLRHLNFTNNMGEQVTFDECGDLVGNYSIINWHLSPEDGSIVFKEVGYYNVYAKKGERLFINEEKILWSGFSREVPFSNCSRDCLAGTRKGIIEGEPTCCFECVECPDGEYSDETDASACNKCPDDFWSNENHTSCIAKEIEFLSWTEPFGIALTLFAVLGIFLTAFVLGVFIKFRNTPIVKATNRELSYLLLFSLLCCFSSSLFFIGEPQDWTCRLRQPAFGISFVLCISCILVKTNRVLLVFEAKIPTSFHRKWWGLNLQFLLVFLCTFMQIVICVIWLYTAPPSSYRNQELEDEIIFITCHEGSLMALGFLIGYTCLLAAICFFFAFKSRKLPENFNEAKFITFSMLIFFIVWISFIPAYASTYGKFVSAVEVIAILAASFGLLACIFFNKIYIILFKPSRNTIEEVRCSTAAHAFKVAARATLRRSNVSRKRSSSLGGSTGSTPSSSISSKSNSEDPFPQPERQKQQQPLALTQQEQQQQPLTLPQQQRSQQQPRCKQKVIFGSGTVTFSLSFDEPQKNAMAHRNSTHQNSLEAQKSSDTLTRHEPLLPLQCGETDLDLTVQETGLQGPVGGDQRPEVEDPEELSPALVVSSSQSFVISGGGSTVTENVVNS
Method: Human parathyroid glands, were obtained from patients undergoing surgical removal of parathyroid tissue for primary or uremic hyperparathyroidism (uremic HPT), and were treated similarly to bovine tissue.
The cells were then pelleted, resuspended in the same buffer, but lacking the ester, and incubated a further 15 minutes at 37° C. The cells were subsequently washed twice with PCB containing 0.5 mM CaCl2 and 0.5% BSA and maintained at room temperature (about 20° C.). Immediately before use, the cells were diluted five-fold with prewarmed 0.5 mM CaCl2 -PCB to obtain a final BSA concentration of 0.1%. The concentration of cells in the cuvette used for fluorescence recording was 1-2×10^6 /ml.
The fluorescence of indicator-loaded cells was measured at 37° C. in a spectrofluorimeter (Biomedical Instrumentation Group, University of Pennsylvania, Philadelphia, Pa.) equipped with a thermostated cuvette holder and magnetic stirrer using excitation and emission wavelengths of 340 and 510 nm, respectively. […] Leakage of dye is dependent on temperature and most occurs within the first 2 minutes after warming the cells in the cuvette. Dye leakage increases only very slowly thereafter. To correct the calibration for dye leakage, cells were placed in the cuvette and stirred at 37° C. for 2-3 minutes. The cell suspension was then removed, the cells pelleted, and the supernatant returned to a clean cuvette. […] This estimate was subtracted from the apparent Fmin.

[2] = biological target: T2, calcium receptor expressed from human parathyroid cell mRNA in Xenopus oocytes (Homo sapiens, UniProt P41180); assay: response of Xenopus oocytes injected with human parathyroid mRNA; assay type: cell-based
T2 sequence (P41180 20-1078): T1 sequence (P41180 20-1078)
Method: Oocytes were injected with poly(A)^+ -enriched mRNA from human parathyroid tissue (hyperplastic glands from a case of secondary HPT).
Glass capillary tubes (1 mm diameter) were pulled to a fine tip and manually broken to achieve a tip diameter of about 15 μmeters. A droplet of mRNA (1 ng/nl in diethylpyrocarbonate (DEPC)-treated water) was placed onto […]® and drawn into the capillary tube by suction. The capillary tube was then connected to a picospritzer (WPI Instruments) and the volume of the air-pulsed droplets adjusted to deliver 50 ng of mRNA (typically 50 nl). A 35-mm culture dish with a patch of nylon stocking fixed to the bottom was used to secure the oocytes during injection of mRNA into the vegetal pole. The injected oocytes were placed into a 35-mm culture dish containing MBS, 100 μg/ml penicillin and 100 μg/ml streptomycin and incubated at 18° C. for 3 days.
Following incubation, an oocyte was placed into a 100-μl plastic chamber and superfused with MBS at a flow rate of 0.5 ml/min using a peristaltic pump. Test molecules or inorganic polycations were added by rapidly moving the tubing into different buffers. Recording and current-passing electrodes were constructed from thin-wall capillary tubing pulled to a resistance of 1-3 Mohms and filled with 3M KCl. […] Currents were recorded directly onto a strip chart recorder.
Using this screen allows one to test for an action directly on the calcium receptor. Oocytes expressing the calcium receptor also responded to several molecules active on intact parathyroid cells when screened as follows. […] This offers rather compelling evidence showing that these molecules act on the calcium receptor or on some other protein intimately associated with its function.

net positive charge = assay type: physicochemical
[3] = system: cyclic AMP formation in bovine parathyroid cells; assay type: cell-based
Method: Cells were incubated as above for PTH secretion studies and at the end of the incubation, a 0.15-ml sample was taken and transferred to 0.85 ml of hot (70° C.) water and heated at this temperature for 5-10 minutes. The tubes were subsequently frozen and thawed several times and the cellular debris sedimented by centrifugation. Portions of the supernatant were acetylated and cyclic AMP concentrations determined by radioimmunoassay.
Each value is the mean±SEM of three experiments.

[4] = system: human parathyroid calcium receptor (HuPCaR 5.2) in HEK293 cells; assay: intracellular calcium in HEK293 cells transfected with HuPCaR 5.2; assay type: cell-based; conditions: Ca2+ 10 mM; Mg2+ 20 mM
Method: Cells obtained from the pool of hygromycin selected HEK293 cells transfected with Cep4B containing the HuPCaR 5.2 insert were plated on collagen coated Aklar squares which had been placed into individual wells of 12-well tissue culture plates. Two to six days later, medium was removed and the cells washed with balanced salt solution and 1 ml of buffer containing 1 μM fura2-AM, 1 mM CaCl2 and 0.1% BSA and 1 mM CaCl2. Measurements of fluorescence in response to calcium receptor agonists were performed at 37° C. in a spectrofluorimeter using excitation and emission wavelengths of 340 and 510 nm, respectively. For signal calibration, Fmax was determined after addition of ionomycin (40 μM) and the apparent Fmin was determined by addition of 0.3M EGTA, 2.5M Tris-HCl; pH 10.

[5] = serum ionized calcium in a human; assay type: in vivo; conditions: higher oral doses
From the text: A range of single oral doses was used to assess safety, tolerance, and changes in primary hyperparathyroidism markers (e.g., plasma concentrations of parathyroid hormone and ionized serum calcium) and of serum calcitonin.

[6] = hypocalcemic response in thyroidectomized rats; assay type: in vivo, rat; conditions: 3 to 100 mg/kg p.o.
From the text: In subsequent studies, rats received a thyroidectomy (parathyroid glands intact). This surgical procedure effectively removed the C-cells secreting calcitonin and therefore enabled the relative contributions of PTH and calcitonin to the hypocalcemic effect of this compound to be determined. […] The only difference was that the rate of onset of the hypocalcemic response was somewhat delayed in thyroidectomized animals. […] Stimulatory effects of this compound on calcitonin secretion increases the rate of onset, but not the extent, of hypocalcemia.

[7] = hypocalcemic response in nephrectomized rats; assay type: in vivo, rat; conditions: oral
From the text: The decreases in serum levels of PTH together with. the resulting hypocalcemia are desirable therapeutic effects in cases of hyperparathyroidism.

Compound: NC[C@@H]1O[C@H](O[C@H]2[C@@H](O)[C@H](O[C@@H]3[C@@H](O)[C@H](N)C[C@H](N)[C@H]3O[C@H]3O[C@H](CN)[C@@H](O)[C@H](O)[C@H]3N)O[C@@H]2CO)[C@H](N)[C@@H](O)[C@@H]1O [Neomycin]
- increase in [Ca2+]i (words) ([1]; 20 μM): evoked a large increase
- increase in [Ca2+]i (words) ([1]; human adenomatous tissue, 0.5 mM extracellular Ca2+, neomycin B 10 μM in FIG. 19, listed as Neomycin B): not only a transient, but additionally a steady-state increase
- increase in [Ca2+]i (words) ([1]; human adenomatous tissue, 0.5 mM extracellular Ca2+, neomycin B 10 μM in FIG. 19, listed as neomycin B): transient and sustained increases
- response of water-injected oocytes ([2]; 10 mM, water-injected control oocytes): failed to cause any change in the current
- concentration effective in oocytes ([2]; human parathyroid mRNA): 100 µM
- response of oocytes expressing calcium receptor ([2]; human parathyroid mRNA, listed as Neomycin B): evoked oscillatory increases
- response of oocytes expressing calcium receptor ([2]; human parathyroid mRNA, listed as neomycin B): evokes oscillating increases
- Net (+) Charge (Table 1) (net positive charge): +6
- net positive charge (net positive charge): +6
- net positive charge (net positive charge; pH 7.3): +6
- isoproterenol-induced cyclic AMP [3]: depressed isoproterenol-induced increases

Compound: COc1cccc([C@@H](C)NCCCc2ccccc2)c1 (single isomer, unassigned) [NPS R-467]
- increase in intracellular calcium [4]: Robust increases

Compound: COc1cccc([C@@H](C)NCCCc2ccccc2Cl)c1 [NPS R-568, (R)-(+)-N-[3-(2-chlorophenyl)propyl]-amethyl-α-3-methoxybenzylamine]
- serum ionized calcium in human [5]: decrease in serum ionized calcium concentration
- hypocalcemic response in thyroidectomized vs sham-operated animals [6]: equal in magnitude to that produced in sham-operated animals
- hypocalcemic response after complete nephrectomy [7]: only marginally affected

Reference: patent US5858684A, “Method of screening calcium receptor-active molecules” (priority 1995, dated 1999)
